Source: PubChem BioAssay (NCI)
Several values for one entry are separate records, joined by “and”; a condition that tells them apart may be missing. Equal values may be shown once.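 GI50: concentration for 50% inhibition of growth. Definition used: TGI = concentration required for complete inhibition of growth.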

Legend:
Experiment in all cases: NCI-60 cell line screen, 384-well format
SK-MEL-28 melanoma = test system: SK-MEL-28 melanoma
NCI-H322M lung = test system: NCI-H322M lung
HOP-92 NSCLC = test system: HOP-92 NSCLC
K-562 leukemia = test system: K-562 leukemia
OVCAR-8 ovarian = test system: OVCAR-8 ovarian
HCT-116 colon = test system: HCT-116 colon
SNB-75 CNS = test system: SNB-75 CNS
UACC-62 melanoma = test system: UACC-62 melanoma
LOX IMVI melanoma = test system: LOX IMVI melanoma
SF-295 CNS = test system: SF-295 CNS
KM12 colon = test system: KM12 colon
OVCAR-4 ovarian = test system: OVCAR-4 ovarian
NCI-H522 lung = test system: NCI-H522 lung
RXF 393 renal = test system: RXF 393 renal
COLO 205 colon = test system: COLO 205 colon
MDA-MB-468 breast = test system: MDA-MB-468 breast
HOP-62 NSCLC = test system: HOP-62 NSCLC
CCRF-CEM leukemia = test system: CCRF-CEM leukemia
SW-620 colon = test system: SW-620 colon
NCI/ADR-RES ovarian = test system: NCI/ADR-RES ovarian
SF-268 CNS = test system: SF-268 CNS
HT29 colon = test system: HT29 colon
HL-60(TB) leukemia = test system: HL-60(TB) leukemia
UO-31 renal = test system: UO-31 renal
UACC-257 melanoma = test system: UACC-257 melanoma
ACHN renal = test system: ACHN renal
MDA-MB-435 melanoma = test system: MDA-MB-435 melanoma
SR leukemia = test system: SR leukemia
A549 NSCLC = test system: A549 NSCLC
BT-549 breast = test system: BT-549 breast
HS 578T breast = test system: HS 578T breast
SK-OV-3 ovarian = test system: SK-OV-3 ovarian
NCI-H460 NSCLC = test system: NCI-H460 NSCLC
MALME-3M melanoma = test system: MALME-3M melanoma
MCF7 breast = test system: MCF7 breast
NCI-H23 lung = test system: NCI-H23 lung
TK-10 renal = test system: TK-10 renal
A498 renal = test system: A498 renal
SK-MEL-5 melanoma = test system: SK-MEL-5 melanoma
HCC-2998 colon = test system: HCC-2998 colon
M14 melanoma = test system: M14 melanoma
CAKI-1 renal = test system: CAKI-1 renal
MDA-MB-231 breast = test system: MDA-MB-231 breast
786-0 renal = test system: 786-0 renal
NCI-H226 lung = test system: NCI-H226 lung
SNB-19 CNS = test system: SNB-19 CNS
PC-3 prostate = test system: PC-3 prostate
OVCAR-5 ovarian = test system: OVCAR-5 ovarian
T-47D breast = test system: T-47D breast
EKVX NSCLC = test system: EKVX NSCLC
U251 glioblastoma = test system: U251 glioblastoma
RPMI-8226 leukemia = test system: RPMI-8226 leukemia
SN12C renal = test system: SN12C renal
DU-145 prostate = test system: DU-145 prostate
SF-539 CNS = test system: SF-539 CNS
SK-MEL-2 melanoma = test system: SK-MEL-2 melanoma
MOLT-4 leukemia = test system: MOLT-4 leukemia
OVCAR-3 ovarian = test system: OVCAR-3 ovarian
IGROV1 ovarian = test system: IGROV1 ovarian
HCT-15 colon = test system: HCT-15 colon

SMILES: COc1cccc2c1C(=O)c1c(O)c3c(c(O)c1C2=O)C[C@@](O)(C(=O)CO)C[C@@H]3OC1CC(N)C(O)C(C)O1 (stereo partly specified)
- GI50 (SK-MEL-28 melanoma): 84.4 nM and 72.7 nM and 101 nM
- TGI (SK-MEL-28 melanoma): 336 nM and 208 nM and 237 nM
- GI50 (NCI-H322M lung): 365 nM and 270 nM and 326 nM
- TGI (NCI-H322M lung): 985 nM and 914 nM and 1830 nM
- GI50 (HOP-92 NSCLC): 24.6 nM and 35.9 nM and 66.9 nM
- GI50 (K-562 leukemia): 39.7 nM and 43.9 nM and 45.6 nM
- TGI (K-562 leukemia): 340 nM and 245 nM and 229 nM
- GI50 (OVCAR-8 ovarian): 76.4 nM and 55.9 nM and 58 nM
- TGI (OVCAR-8 ovarian): 466 nM and 236 nM and 223 nM
- GI50 (HCT-116 colon): 29.4 nM and 16.5 nM
- TGI (HCT-116 colon): 972 nM and 151 nM
- GI50 (SNB-75 CNS): 40.3 nM and 31.7 nM and 43.3 nM
- TGI (SNB-75 CNS): 126 nM and 100 nM and 174 nM
- GI50 (UACC-62 melanoma): 25.3 nM and 28.6 nM and 14.8 nM
- TGI (UACC-62 melanoma): 133 nM and 155 nM and 142 nM
- GI50 (LOX IMVI melanoma): 32 nM and 23.9 nM and 21.9 nM
- TGI (LOX IMVI melanoma): 235 nM and 157 nM and 163 nM
- GI50 (SF-295 CNS): 49.2 nM and 32.3 nM and 52.2 nM
- TGI (SF-295 CNS): 169 nM and 135 nM and 447 nM
- GI50 (KM12 colon): 39.6 nM and 41 nM
- TGI (KM12 colon): 423 nM and 212 nM
- GI50 (OVCAR-4 ovarian): 310 nM and 246 nM and 263 nM
- TGI (OVCAR-4 ovarian): 983 nM and 954 nM and 1910 nM
- GI50 (NCI-H522 lung): 25.3 nM and 18 nM and 11.1 nM
- TGI (NCI-H522 lung): 75.6 nM and 69.7 nM and 117 nM
- GI50 (RXF 393 renal): 37.2 nM and 41 nM and 117 nM
- TGI (RXF 393 renal): 211 nM and 114 nM and 274 nM
- GI50 (COLO 205 colon): 17.8 nM
- TGI (COLO 205 colon): 328 nM and 179 nM
- GI50 (MDA-MB-468 breast): 26.2 nM and 14.8 nM and 12.7 nM
- TGI (MDA-MB-468 breast): 70 nM and 36.6 nM and 28.3 nM
- GI50 (HOP-62 NSCLC): 40.6 nM and 23.8 nM and 34.4 nM
- TGI (HOP-62 NSCLC): 145 nM and 91.6 nM and 125 nM
- GI50 (CCRF-CEM leukemia): 8.6 nM and < 11.2 nM and < 10 nM
- TGI (CCRF-CEM leukemia): 27.4 nM and 19.4 nM and 17.7 nM
- GI50 (SW-620 colon): 23.3 nM and 44.8 nM and 19.6 nM
- TGI (SW-620 colon): 463 nM and 741 nM and 501 nM
- GI50 (NCI/ADR-RES ovarian): 5900 nM and 7690 nM and 22600 nM
- TGI (NCI/ADR-RES ovarian): 24300 nM and 34300 nM and > 100000 nM
- GI50 (SF-268 CNS): 35.2 nM and 32.6 nM and 36.3 nM
- TGI (SF-268 CNS): 207 nM and 138 nM and 213 nM
- GI50 (HT29 colon): 114 nM and 119 nM and 106 nM
- TGI (HT29 colon): 490 nM and 303 nM and 263 nM
- GI50 (HL-60(TB) leukemia): 5.95 nM and < 10 nM
- TGI (HL-60(TB) leukemia): 14.5 nM and 11.8 nM
- GI50 (UO-31 renal): 360 nM and 508 nM and 907 nM
- TGI (UO-31 renal): 1630 nM and 1530 nM and 2280 nM
- GI50 (UACC-257 melanoma): 109 nM and 118 nM and 125 nM
- TGI (UACC-257 melanoma): 389 nM and 255 nM and 261 nM
- GI50 (ACHN renal): 69.2 nM and 64 nM and 171 nM
- TGI (ACHN renal): 407 nM and 287 nM and 591 nM
- GI50 (MDA-MB-435 melanoma): 219 nM and 232 nM and 150 nM
- TGI (MDA-MB-435 melanoma): 632 nM and 669 nM and 599 nM
- GI50 (SR leukemia): 4 nM
- TGI (SR leukemia): 7.78 nM
- GI50 (A549 NSCLC): 58.7 nM and 26.3 nM and 41.3 nM
- TGI (A549 NSCLC): 473 nM and 188 nM and 222 nM
- GI50 (BT-549 breast): 23.3 nM and 18.2 nM and 13.6 nM
- TGI (BT-549 breast): 128 nM and 70.2 nM and 130 nM
- GI50 (HS 578T breast): 16.7 nM and 26.9 nM and 109 nM
- TGI (HS 578T breast): 133 nM and 141 nM and 322 nM
- GI50 (SK-OV-3 ovarian): 68.1 nM and 75.6 nM and 80.2 nM
- TGI (SK-OV-3 ovarian): 334 nM and 377 nM and 409 nM
- GI50 (NCI-H460 NSCLC): 9.14 nM
- TGI (NCI-H460 NSCLC): 86.1 nM and 98.9 nM
- GI50 (MALME-3M melanoma): 38.1 nM and 45.6 nM and 54.7 nM
- TGI (MALME-3M melanoma): 153 nM and 166 nM and 191 nM
- GI50 (MCF7 breast): 34 nM and 22.8 nM and 19.1 nM
- TGI (MCF7 breast): 3210 nM and 1370 nM and 12200 nM
- GI50 (NCI-H23 lung): 43 nM and 27.4 nM and 28.5 nM
- TGI (NCI-H23 lung): 126 nM and 89 nM and 133 nM
- GI50 (TK-10 renal): 78 nM and 88.7 nM
- TGI (TK-10 renal): 461 nM and 328 nM
- GI50 (A498 renal): 38.2 nM and 30.6 nM and 50.9 nM
- TGI (A498 renal): 472 nM and 184 nM and 244 nM
- GI50 (SK-MEL-5 melanoma): 41.1 nM and 13.1 nM
- TGI (SK-MEL-5 melanoma): 166 nM and 58.6 nM
- GI50 (HCC-2998 colon): 35.6 nM and 17.6 nM
- TGI (HCC-2998 colon): 176 nM and 92.6 nM
- GI50 (M14 melanoma): 51.6 nM and 44.6 nM and 37.1 nM
- TGI (M14 melanoma): 200 nM and 182 nM and 190 nM
- GI50 (CAKI-1 renal): 41.9 nM and 25 nM
- TGI (CAKI-1 renal): 504 nM and 160 nM
- GI50 (MDA-MB-231 breast): 81.5 nM and 43.4 nM and 36.9 nM
- TGI (MDA-MB-231 breast): 523 nM and 275 nM and 318 nM
- GI50 ([…]-0 renal): 42.9 nM and 25.3 nM and 46.5 nM
- TGI (786-0 renal): 227 nM and 226 nM and 1070 nM
- GI50 (NCI-H226 lung): 34.4 nM and 36.8 nM and 75.2 nM
- TGI (NCI-H226 lung): 131 nM and 156 nM and 299 nM
- GI50 (SNB-19 CNS): 36.2 nM and 32.2 nM and 34.3 nM
- GI50 (PC-3 prostate): 189 nM and 154 nM and 139 nM
- TGI (PC-3 prostate): 765 nM and 626 nM and 467 nM
- GI50 (OVCAR-5 ovarian): 194 nM and 260 nM and 159 nM
- TGI (OVCAR-5 ovarian): 1040 nM and 2130 nM and 720 nM
- GI50 (T-47D breast): 32.9 nM and 32 nM and 40.8 nM
- GI50 (EKVX NSCLC): 165 nM and 248 nM and 419 nM
- TGI (EKVX NSCLC): 704 nM and 1280 nM and 4790 nM
- GI50 (U251 glioblastoma): 20 nM and 18.4 nM and 14.3 nM
- GI50 (RPMI-8226 leukemia): 7.64 nM and 11.2 nM and < 10 nM
- TGI (RPMI-8226 leukemia): 40.3 nM and 24.6 nM and 21.9 nM
- GI50 (SN12C renal): 35.8 nM and 31.4 nM and 33.5 nM
- TGI (SN12C renal): 162 nM and 166 nM and 181 nM
- GI50 (DU-145 prostate): 33.7 nM and 18.5 nM
- TGI (DU-145 prostate): 148 nM and 214 nM
- GI50 (SF-539 CNS): 39.9 nM and 34.8 nM and 35.8 nM
- TGI (SF-539 CNS): 264 nM and 168 nM and 173 nM
- GI50 (SK-MEL-2 melanoma): 56.5 nM and 86 nM and 68.1 nM
- TGI (SK-MEL-2 melanoma): 128 nM and 179 nM and 130 nM
- GI50 (MOLT-4 leukemia): 4.08 nM and < 10 nM
- TGI (MOLT-4 leukemia): 7.81 nM
- GI50 (OVCAR-3 ovarian): 73.4 nM and 116 nM
- TGI (OVCAR-3 ovarian): 539 nM and 821 nM
- GI50 (IGROV1 ovarian): 72.5 nM and 46.7 nM
- TGI (IGROV1 ovarian): 1220 nM and 231 nM
- GI50 (HCT-15 colon): 202 nM and 111 nM and 89 nM
- TGI (HCT-15 colon): 2130 nM and 1360 nM and 1490 nM
